Results on one molecule are retold here after patent publication US12012414B1, “Imidazo[1,5-a]pyrido[4,3-e]pyrimidines as CK2 inhibitors” (KING FAISAL UNIVERSITY, priority 2024, dated 2024).

One assay deals with H1299 (lung). The assay can be described thus: In vitro cytotoxic activity (MTT) assay, H1299. In kind it is cell-based. The conditions noted are these: Homo sapiens, NCI-H1299; H1299 cells, exposed for 96 hours, 50% inhibition of cell proliferation; read-out: Cytotoxicity activity IC50, H1299 (lung). On the procedure:
(§1) Compounds 1-16 were screened for their in vitro cytotoxic activity utilizing a 3-(4,5-dimethyl-thiazol-2-yl)-2,5-diphenyltetrazolium bromide (MTT) assay against selected cancer human cell lines consisting of PC3 (prostate), HCT116 (colon), A375 (melanoma), H1299 (lung), MIAPaCa-2 (pancreas), HL60 (leukemia), MCF7 (breast), MDA-MB-231 (breast) (T. Mosmann, J. Immunol. Meth., 1983, 65, 55-63). The cells were cultured at 37° C. in RMPI1640 medium supplemented with 10% fetal bovine serum, 50 IU/mL penicillin, and 50 μg/mL streptomycin in a 5% CO2 incubator. All cells were sub-cultured 3 times/week by trypsinisation. Viable cells were seeded and allowed to adhere for 12 hours before a test drug was added in 96-well plates at an initial density of 1.0×10^5 cells/mL. Tumor cell lines were separately exposed to various concentrations of the tested compounds followed by incubation at a temperature of 37° C. during 96 hours inside a medium of fresh RMPI 1640. Cells were subsequently incubated at 37° C. using MTT at 0.5 mg/mL during 4 hours. After removal of supernatant, formazan crystals were dissolved in isopropanol and the optical density was measured at 570 nm. CX-4945 was used as a positive control.

Another assay deals with HCT116 (colon). In words: In vitro cytotoxic activity (MTT) assay, HCT116. In kind it is cell-based. The conditions noted are these: Homo sapiens, HCT-116; HCT116 cells, exposed for 96 hours, 50% inhibition of cell proliferation; read-out: Cytotoxicity activity IC50, HCT116 (colon). The protocol:
as §1

The next assay relates to MDA-MB-231 (breast). In words: In vitro cytotoxic activity (MTT) assay, MDA-MB-231. In kind it is cell-based. The conditions noted are these: Homo sapiens; MDA-MB-231 cells, exposed for 96 hours, 50% inhibition of cell proliferation; read-out: Cytotoxicity activity IC50, MDA-MB-231 (breast). The protocol:
as §1

The test system of the next assay is A375 (melanoma). In words: In vitro cytotoxic activity (MTT) assay, A375. In kind it is cell-based. The conditions noted are these: Homo sapiens, A-375; A375 cells, exposed for 96 hours, 50% inhibition of cell proliferation; read-out: Cytotoxicity activity IC50, A375 (melanoma). The protocol: as §1
In a further assay the test system is PC3 (prostate). In words: In vitro cytotoxic activity (MTT) assay, PC3. It is filed as cell-based. The conditions noted are these: Homo sapiens, PC-3; PC3 cells, exposed for 96 hours, 50% inhibition of cell proliferation; read-out: Cytotoxicity activity IC50, PC3 (prostate). The protocol:
as §1

The test system of the next assay is MIAPaCa-2 (pancreas). The assay can be described thus: In vitro cytotoxic activity (MTT) assay, MIAPaCa-2. In kind it is cell-based. As to conditions: Homo sapiens, MIA PaCa-2; MIAPaCa-2 cells, exposed for 96 hours, 50% inhibition of cell proliferation; read-out: Cytotoxicity activity IC50, MIAPaCa-2 (pancreas). The protocol: as §1
The next assay concerns the target T1, recombinant human CK2 (Homo sapiens, UniProt P68400).
T1 construct: purchased Millipore
In words: CK2 Kinase Assay (33P-ATP, substrate peptide RRRDDDSDDD). It is filed as biochemical. The conditions noted are these: recombinant human CK2 holoenzyme, final ATP concentration 15 μM, 10 min at 30° C.; read-out: protein kinase CK2 IC50. On the procedure:
CK2 Kinase Assay was conducted using the protocol as described in Pierre F. et al; J. Med. Chem. 2011, 54, 635-654. The tested compounds in aqueous solution were added at a volume of 10 μL to a reaction mixture comprising 10 μL of assay dilution buffer (ADB; 20 mM MOPS, pH 7.2, 25 mM β-glycerol phosphate, 5 mM EGTA, 1 mM sodium orthovanadate, and 1 mM dithiothreitol), 10 μL of substrate peptide (RRRDDDSDDD, dissolved in ADB at a concentration of 1 mM), 10 μL of recombinant human CK2 (RROP-holoenzyme, 25 ng dissolved in ADB; Millipore). Reactions were initiated by the addition of 10 μL of ATP solution (90% 75 mMMgCl2, 75 μM ATP (final ATP concentration: 15 μM) dissolved in ADB; 10% [γ-33P] ATP (stock 1 mCi/100 μL; 3000 Ci/mmol (Perkin-Elmer) and maintained for 10 min at 30° C. The reactions were quenched with 100 μL of 0.75% phosphoric acid and then transferred to and filtered through a phosphor cellulose filter plate (Millipore). After washing each well five times with 0.75% phosphoric acid, the plate was dried under vacuum for 5 min and, following the addition of 15 μL of scintillation fluid to each well, the residual radioactivity was measured using a Wallac […] counter. The IC50 values were derived from eight concentrations of test inhibitors.

A further assay deals with HL60 (leukemia). The assay can be described thus: In vitro cytotoxic activity (MTT) assay, HL60. In kind it is cell-based. The conditions noted are these: Homo sapiens, HL-60; HL60 cells, exposed for 96 hours, 50% inhibition of cell proliferation; read-out: Cytotoxicity activity IC50, HL60 (leukemia). On the procedure: as §1
A further assay deals with MCF7 (breast). In words: In vitro cytotoxic activity (MTT) assay, MCF7. As to conditions: Homo sapiens; MCF7 cells, exposed for 96 hours, 50% inhibition of cell proliferation; read-out: Cytotoxicity activity IC50, MCF7 (breast). In kind it is cell-based. On the procedure:
as §1

T1 sequence (P68400 whole entry): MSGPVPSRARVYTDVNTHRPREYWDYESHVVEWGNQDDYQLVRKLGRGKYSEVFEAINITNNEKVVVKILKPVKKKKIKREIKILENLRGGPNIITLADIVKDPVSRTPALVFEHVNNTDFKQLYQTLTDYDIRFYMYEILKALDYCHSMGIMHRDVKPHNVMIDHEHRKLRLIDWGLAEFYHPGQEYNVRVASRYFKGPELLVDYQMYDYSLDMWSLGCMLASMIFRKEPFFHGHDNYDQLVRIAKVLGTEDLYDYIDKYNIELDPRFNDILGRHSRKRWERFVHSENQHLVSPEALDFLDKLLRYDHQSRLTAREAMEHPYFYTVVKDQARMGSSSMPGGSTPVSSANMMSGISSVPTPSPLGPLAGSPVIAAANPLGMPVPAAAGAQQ
T1 sequence (P67870 whole entry partner): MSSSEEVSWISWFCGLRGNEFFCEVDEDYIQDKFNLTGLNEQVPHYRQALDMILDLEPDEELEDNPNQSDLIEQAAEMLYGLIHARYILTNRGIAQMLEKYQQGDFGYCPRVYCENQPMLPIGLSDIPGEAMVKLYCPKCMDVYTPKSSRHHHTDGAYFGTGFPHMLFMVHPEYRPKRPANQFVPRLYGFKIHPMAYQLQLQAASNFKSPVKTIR

For the molecule `O=C(O)c1ncn2c1nc(Nc1cccc(Cl)c1)c1ccncc12` [Compound 1, 5-((3-chlorophenyl)amino)imidazo[1,5-a]pyrido[4,3-e]pyrimidine-3-carboxylic acid], the IC50 was 1.9 µM in the assay with H1299 (lung); 2 µM in the assay on HCT116 (colon); 4.5 µM with MDA-MB-231 (breast); 3.8 µM with A375 (melanoma); 1.7 µM in the assay with PC3 (prostate); 1.3 µM in the assay with MIAPaCa-2 (pancreas). Further, the half-inhibitory concentration (IC50) was 0.074 µM at recombinant human CK2, 3.6 µM in the assay on HL60 (leukemia) and 5.4 µM in the assay on MCF7 (breast).

What is called IC50 is the concentration that inhibits the measured activity by half.
